In patent publication US9422338B2 (EpoDose LLC, priority 2011, dated 2016):

Molecular target: T1, EPOR (erythropoietin receptor), human recombinant, NSO cells (Homo sapiens, UniProt P19235)
T1 construct: host or cells: NSO cells
T1 sequence (P19235 25-250 limits assumed): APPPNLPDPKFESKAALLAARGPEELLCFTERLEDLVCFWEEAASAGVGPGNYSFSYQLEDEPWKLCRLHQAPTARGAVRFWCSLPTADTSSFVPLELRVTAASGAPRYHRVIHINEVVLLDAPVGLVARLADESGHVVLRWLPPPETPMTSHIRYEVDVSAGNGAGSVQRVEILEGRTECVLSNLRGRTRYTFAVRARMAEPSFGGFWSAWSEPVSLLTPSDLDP
Test: EPOR radioligand binding assay ([125I] Erythropoietin competition)
Details: for NH (Hill coefficient): slope of competitive binding curve; for Ki (AC-0005-002)/Ki: Ki relative to that of AC-0005-002; for Ki/Ki(EPO): Ki relative to that of EPO
Protocol: IC50 values were determined by a non-linear, least squares regression analysis using MATHIQ™ (computer software for integrating mathematical functions into new or existing software). […] Where presented, the Hill coefficient (nH), defining the slope of the competitive binding curve, was calculated using MATHIQ™.

[1] = Example 1, mimetics varied in N-end, loop and mid sequences
[2] = Example 2, mimetics varied in loop, mid and C-end

| SMILES | Ki [1] [nM] | IC50 (Example 4, fourth table) [nM] | Ki [2] [nM] | IC50 (Example 3) [nM] | Ki (Example 3, Cheng-Prusoff) [nM] | IC50 (Example 4, fifth table) [nM] | IC50 (Example 4, sixth table) [nM] | Ki (Example 4, sixth table) [nM] | NH (Hill coefficient) (Example 3) | Ki (AC-0005-002)/Ki (Example 4, fifth table) | Ki/Ki(EPO) (Example 4, fifth table) |
| --- | --- | --- | --- | --- | --- | --- | --- | --- | --- | --- | --- |
| CSCC[C@@H]1NC(=O)[C@H](CCCNC(=N)N)NC(=O)C(NC(=O)[C@H](CC(C)C)NC(=O)[C@H](Cc2ccc(O)cc2)NC(=O)[C@H](CC(N)=O)NC(C)=O)CCOCC(C(=O)N[C@@H](CCCCN)C(=O)N2CCC[C@H]2C(=O)NCCCCC(=O)NCCCCC(NC(=O)[C@@H]2CCCN2C(=O)[C@H](CCCCN)NC(=O)C2COCCC(NC(=O)[C@H](CC(C)C)NC(=O)[C@H](Cc3ccc(O)cc3)NC(=O)[C@H](CC(N)=O)NC(C)=O)C(=O)N[C@@H](CCCNC(=N)N)C(=O)N[C@@H](CCSC)C(=O)N[C@@H](CCc3ccccc3)C(=O)N[C@@H](Cc3c[nH]c4ccccc34)C(=O)N[C@@H](C(C)C)C(=O)N2)C(N)=O)NC(=O)[C@H](C(C)C)NC(=O)[C@H](Cc2c[nH]c3ccccc23)NC(=O)[C@H](CCc2ccccc2)NC1=O (some centres unmarked) [AC-0005-023] | 17 | 35 | – | – | – | – | – | – | – | – | – |
| CSCC[C@@H]1NC(=O)[C@H](CCCNC(=N)N)NC(=O)C(NC(=O)[C@H](CC(C)C)NC(=O)[C@H](Cc2ccc(O)cc2)NC(=O)[C@H](CC(N)=O)NC(C)=O)CCOCC(C(=O)N[C@@H](CCCCN)C(=O)N2CCC[C@H]2C(=O)NCCCCC(=O)NCCCCC(NC(=O)[C@@H]2CCCN2C(=O)[C@H](CCCCN)NC(=O)C2COCCC(NC(=O)[C@H](CC(C)C)NC(=O)[C@H](Cc3ccc(O)cc3)NC(=O)[C@H](CC(N)=O)NC(C)=O)C(=O)N[C@@H](CCCNC(=N)N)C(=O)N[C@@H](CCSC)C(=O)N[C@@H](CC(C)C)C(=O)N[C@@H](Cc3c[nH]c4ccccc34)C(=O)N[C@@H](C(C)C)C(=O)N2)C(N)=O)NC(=O)[C@H](C(C)C)NC(=O)[C@H](Cc2c[nH]c3ccccc23)NC(=O)[C@H](CC(C)C)NC1=O (some centres unmarked) [AC-0005-024] | 34 | 72 | – | – | – | – | – | – | – | – | – |
| CSCC[C@@H]1NC(=O)[C@H](CCCNC(=N)N)NC(=O)C(NC(=O)[C@H](CC(C)C)NCOCCCO)CCOCC(C(=O)N[C@@H](CCCCNC(=N)N)C(=O)N2CCC[C@H]2C(=O)NCCCCC(=O)NCCCCC(NC(=O)[C@@H]2CCCN2C(=O)[C@H](CCCCNC(=N)N)NC(=O)C2COCCC(NC(=O)[C@H](CC(C)C)NCOCCCO)C(=O)N[C@@H](CCCNC(=N)N)C(=O)N[C@@H](CCSC)C(=O)N3CCC[C@H]3C(=O)N[C@@H](Cc3c[nH]c4ccccc34)C(=O)N[C@@H](C(C)C)C(=O)N2)C(N)=O)NC(=O)[C@H](C(C)C)NC(=O)[C@H](Cc2c[nH]c3ccccc23)NC(=O)[C@@H]2CCCN2C1=O (some centres unmarked) [AC-0005-053] | – | – | – | – | – | – | – | – | 1.86 | 403 | 120 |
| CSCC[C@@H]1NC(=O)[C@H](CCCNC(=N)N)NC(=O)C(NC(=O)[C@H](CC(C)C)NC(=O)[C@H](Cc2ccc(O)cc2)NC(=O)[C@H](CC(N)=O)NC(C)=O)CCOCC(C(=O)N[C@@H](CCCCNC(=N)N)C(=O)N2CCC[C@H]2C(=O)NCCCCC(=O)NCCCCC(NC(=O)[C@@H]2CCCN2C(=O)[C@H](CCCCNC(=N)N)NC(=O)C2COCCC(NC(=O)[C@H](CC(C)C)NC(=O)[C@H](Cc3ccc(O)cc3)NC(=O)[C@H](CC(N)=O)NC(C)=O)C(=O)N[C@@H](CCCNC(=N)N)C(=O)N[C@@H](CCSC)C(=O)N3CCC[C@H]3C(=O)N[C@@H](Cc3ccc4ccccc4c3)C(=O)N[C@@H](C(C)C)C(=O)N2)C(N)=O)NC(=O)[C@H](C(C)C)NC(=O)[C@H](Cc2ccc3ccccc3c2)NC(=O)[C@@H]2CCCN2C1=O (some centres unmarked) [AC-0005-055] | 4.8 | – | 6 | 11 | 5.23 | 10.2 | 12.6 | 6 | – | – | – |
| CSCC[C@@H]1NC(=O)[C@H](Cc2c[nH]cn2)NC(=O)C(NC(=O)[C@H](CC(C)C)NC(=O)[C@H](Cc2ccc(O)cc2)NC(=O)[C@H](CC(N)=O)NC(C)=O)CCOCC(C(=O)N[C@@H](CCCCNC(=N)N)C(=O)N2CCC[C@H]2C(=O)NCCCCC(=O)NCCCCC(NC(=O)[C@@H]2CCCN2C(=O)[C@H](CCCCNC(=N)N)NC(=O)C2COCCC(NC(=O)[C@H](CC(C)C)NC(=O)[C@H](Cc3ccc(O)cc3)NC(=O)[C@H](CC(N)=O)NC(C)=O)C(=O)N[C@@H](Cc3c[nH]cn3)C(=O)N[C@@H](CCSC)C(=O)N3CCC[C@H]3C(=O)N[C@@H](Cc3ccc4ccccc4c3)C(=O)N[C@@H](C(C)C)C(=O)N2)C(N)=O)NC(=O)[C@H](C(C)C)NC(=O)[C@H](Cc2ccc3ccccc3c2)NC(=O)[C@@H]2CCCN2C1=O (some centres unmarked) [AC-0005-056] | 11.2 | – | – | 23.5 | 11.1 | 24 | – | – | – | – | – |
| CSCC[C@H]1COC2CCCC2C(=O)N[C@@H](Cc2c[nH]c3ccccc23)C(=O)N[C@@H](C(C)C)C(=O)NC(C(=O)N[C@@H](CCCCNC(=N)N)C(=O)N2CCC[C@H]2C(=O)NCCCCC(=O)NCCCCC(NC(=O)[C@@H]2CCCN2C(=O)[C@H](CCCCNC(=N)N)NC(=O)C2COCCC(NC(=O)[C@H](CC(C)C)NC(=O)[C@H](Cc3ccc(O)cc3)NC(=O)[C@H](CC(N)=O)NC(C)=O)C(=O)N[C@@H](CCCNC(=N)N)C(=O)N[C@@H](CCSC)COC3CCCC3C(=O)N[C@@H](Cc3c[nH]c4ccccc34)C(=O)N[C@@H](C(C)C)C(=O)N2)C(N)=O)COCCC(NC(=O)[C@H](CC(C)C)NC(=O)[C@H](Cc2ccc(O)cc2)NC(=O)[C@H](CC(N)=O)NC(C)=O)C(=O)N[C@@H](CCCNC(=N)N)C(=O)N1 (some centres unmarked) [AC-0005-057] | – | – | – | – | – | – | – | – | 1.84 | 379 | 128 |

Further lines, with some results ahead:

| Ki [1] [nM] | IC50 (Example 4, fourth table) [nM] | Ki [2] [nM] | IC50 (Example 3) [nM] | Ki (Example 3, Cheng-Prusoff) [nM] | IC50 (Example 4, fifth table) [nM] | IC50 (Example 4, sixth table) [nM] | Ki (Example 4, sixth table) [nM] | SMILES | NH (Hill coefficient) (Example 3) | Ki (AC-0005-002)/Ki (Example 4, fifth table) | Ki/Ki(EPO) (Example 4, fifth table) |
| --- | --- | --- | --- | --- | --- | --- | --- | --- | --- | --- | --- |
| 5.9 | 20 | 4.3 | 13.5 | 6.39 | 12.4 | 9 | 4.3 | CSCC[C@@H]1NC(=O)[C@H](CCCNC(=N)N)NC(=O)C(NC(=O)[C@H](CC(C)C)NC(=O)[C@H](Cc2ccc(O)cc2)NC(=O)[C@H](CC(N)=O)NC(C)=O)CCOCC(C(=O)N[C@@H](CCCCN)C(=O)N2CCC[C@H]2C(=O)NCCCCC(=O)NCCCCC(NC(=O)[C@@H]2CCCN2C(=O)[C@H](CCCCN)NC(=O)C2COCCC(NC(=O)[C@H](CC(C)C)NC(=O)[C@H](Cc3ccc(O)cc3)NC(=O)[C@H](CC(N)=O)NC(C)=O)C(=O)N[C@@H](CCCNC(=N)N)C(=O)N[C@@H](CCSC)C(=O)N3CCC[C@H]3C(=O)N[C@@H](Cc3c[nH]c4ccccc34)C(=O)N[C@@H](C(C)C)C(=O)N2)C(N)=O)NC(=O)[C@H](C(C)C)NC(=O)[C@H](Cc2c[nH]c3ccccc23)NC(=O)[C@@H]2CCCN2C1=O (some centres unmarked) [AC-0005-026] | – | – | – |
| 4.6 | – | – | 10.1 | 4.8 | 9.6 | – | – | CSCC[C@@H]1NC(=O)[C@H](CCCNC(=N)N)NC(=O)C(NC(=O)[C@H](CC(C)C)NC(=O)[C@H](Cc2ccc(O)cc2)NC(=O)[C@H](CC(N)=O)NC(C)=O)CCOCC(C(=O)N[C@@H](CCCCNC(=N)N)C(=O)N2CCC[C@H]2C(=O)NCCCCC(=O)NCCCCC(NC(=O)[C@@H]2CCCN2C(=O)[C@H](CCCCNC(=N)N)NC(=O)C2COCCC(NC(=O)[C@H](CC(C)C)NC(=O)[C@H](Cc3ccc(O)cc3)NC(=O)[C@H](CC(N)=O)NC(C)=O)C(=O)N[C@@H](CCCNC(=N)N)C(=O)N[C@@H](CCSC)C(=O)N3CCC[C@H]3C(=O)N[C@@H](Cc3c[nH]c4ccccc34)C(=O)N[C@@H](C(C)C)C(=O)N2)C(N)=O)NC(=O)[C@H](C(C)C)NC(=O)[C@H](Cc2c[nH]c3ccccc23)NC(=O)[C@@H]2CCCN2C1=O (some centres unmarked) [AC-0005-051] | – | – | – |
| 11.4 | – | – | 24.4 | 11.6 | 24 | – | – | CSCC[C@@H]1NC(=O)[C@H](CCCNC(=N)N)NC(=O)C(NC(=O)[C@H](CC(C)C)NC(=O)[C@H](Cc2ccc(O)cc2)NC(C)=O)CCOCC(C(=O)N[C@@H](CCCCNC(=N)N)C(=O)N2CCC[C@H]2C(=O)NCCCCC(=O)NCCCCC(NC(=O)[C@@H]2CCCN2C(=O)[C@H](CCCCNC(=N)N)NC(=O)C2COCCC(NC(=O)[C@H](CC(C)C)NC(=O)[C@H](Cc3ccc(O)cc3)NC(C)=O)C(=O)N[C@@H](CCCNC(=N)N)C(=O)N[C@@H](CCSC)C(=O)N3CCC[C@H]3C(=O)N[C@@H](Cc3c[nH]c4ccccc34)C(=O)N[C@@H](C(C)C)C(=O)N2)C(N)=O)NC(=O)[C@H](C(C)C)NC(=O)[C@H](Cc2c[nH]c3ccccc23)NC(=O)[C@@H]2CCCN2C1=O (some centres unmarked) [AC-0005-052] | – | – | – |
| 15.5 | – | – | 65.1 | 30.9 | 33 | – | – | CSCC[C@@H]1NC(=O)[C@H](Cc2c[nH]cn2)NC(=O)C(NC(=O)[C@H](CC(C)C)NC(=O)[C@H](Cc2ccc(O)cc2)NC(=O)[C@H](CC(N)=O)NC(C)=O)CCOCC(C(=O)N[C@@H](CCCCNC(=N)N)C(=O)N2CCC[C@H]2C(=O)NCCCCC(=O)NCCCCC(NC(=O)[C@@H]2CCCN2C(=O)[C@H](CCCCNC(=N)N)NC(=O)C2COCCC(NC(=O)[C@H](CC(C)C)NC(=O)[C@H](Cc3ccc(O)cc3)NC(=O)[C@H](CC(N)=O)NC(C)=O)C(=O)N[C@@H](Cc3c[nH]cn3)C(=O)N[C@@H](CCSC)C(=O)N3CCC[C@H]3C(=O)N[C@@H](Cc3c[nH]c4ccccc34)C(=O)N[C@@H](C(C)C)C(=O)N2)C(N)=O)NC(=O)[C@H](C(C)C)NC(=O)[C@H](Cc2c[nH]c3ccccc23)NC(=O)[C@@H]2CCCN2C1=O (some centres unmarked) [AC-0005-054] | – | – | – |
